In US7361730B1, “Surface localized colligin/Hsp47 in carcinoma cells” (University of Maryland, priority 1999, dated 2008):

Assays:
colligin/Hsp47 = experiment: Cell surface labeling, cross-linking and immunoprecipitation; assay type: cell-based, human and murine; conditions: 1 mM amiloride; SCC and LL/2 cells
Procedure: The methods used were previously described for the characterization of TM4SF complexes with integrins (Berditchevski et al., (1996) Molec. Biol. of the Cell 7, 193-207). In essence, cells are labeled with NHS-LC-biotin (Pierce, Rockford, Ill.) according to kit protocol, and lysed in immunoprecipitation buffer [1% Brij 96, 25 mM Hepes, pH 7.4, 150 mM NaCl, 5 mM MgCl2, 2 mM PMSF, 20 μg/ml apotinin, and 10 μg/ml leupeptin]. Immune complexes are collected on protein A beads pre-bound with antibodies, followed by four washes with immunoprecipitation buffer. For more “stringent” conditions, the immunoprecipitation buffer is supplemented with 0.2% SDS. Immune complexes are eluted from protein A beads with Laemmli elution buffer and proteins are separated by SDS-PAGE. Proteins are transferred to nitrocellulose membranes and visualized with HRPO-conjugated ExtrAvidin (Sigma Chemical Co., St. Louis Mo.) using Renaissance Chemiluminescent Reagents (NEN, Cambridge). Reprecipitations are preformed from Brij 96 lysates prepared from surface-biotinylated SCC cells. […]
(§1) For cross-linking, cells are treated with DTSSP, a membrane impermeable cross-linker or DSP. After solubilization in immunoprecipitation buffer supplemented with 0.2% SDS protein complexes are immunoprecipitated as above and analyzed under reducing conditions.

SCC cells and LL/2 cells = experiment: Tumor cell invasion assay (modified Boyden chamber, Matrigel); assay type: cell-based, human and murine; conditions: SCC and LL/2 cells in Matrigel chambers, 24 hrs
Procedure: An in vitro assay is modified after that described previously by Chu et al. (1993) Proc. Natl. Acad. Sci. 90, 4261-4265, utilizing Matrigel®, a reconstituted basement membrane. In essence, a modified Boyden chamber containing an 8 μm-porosity polyvinylpyrolidone-free polycarbonate filter is precoated with Matrigel® (Collaborative Biomedical Products, Becton Dickinson, Bedford, Mass.). The lower well of the chamber is then filled with serum free medium containing 500 μl of 3T6 cell-conditioned medium as a chemoattractant. The upper well is then seeded with 200 μl of cell suspension at 1.0×10^4 cells/chamber plus additives as indicated. The chambers are then incubated at 37° C. for 24 hrs. […] The resulting cells contained in Matrigel®, as well as the cells in the lower chamber, are counted in a Coulter counter. Data are expressed as the percent invasion through the matrix and membrane relative to the migration through the control membrane. The “Invasion Index” is expressed as the ratio of the percent invasion of a test cell over the percent invasion of a control cell.
Overall treatment and group effects are assessed using an analysis of variance (ANOVA), with post-hoc comparisons based on the Newman-Keuls test (p<0.05). The association of mean HSP47 fluorescence labeling with the invasion index is evaluated using the nonparametric Spearman's rank-order correlation coefficient (rho).

[1] = target: T1, colligin/CBP2/Hsp47 on the surface of human carcinoma cells (human, UniProt P50454 19-418); experiment: cross-linking (DSP) and immunoprecipitation with anti-CD81 mAbs, SCC cells
T1 construct: whole, on cells; Endogenous protein on intact cells or in plasma membrane preparations or Brij 96 lysates of surface-biotinylated cells; The 46K band is called unglycosylated Hsp47; also called colligin/Hsp47; cell surface colligin/Hsp47
T1 sequence (looked up): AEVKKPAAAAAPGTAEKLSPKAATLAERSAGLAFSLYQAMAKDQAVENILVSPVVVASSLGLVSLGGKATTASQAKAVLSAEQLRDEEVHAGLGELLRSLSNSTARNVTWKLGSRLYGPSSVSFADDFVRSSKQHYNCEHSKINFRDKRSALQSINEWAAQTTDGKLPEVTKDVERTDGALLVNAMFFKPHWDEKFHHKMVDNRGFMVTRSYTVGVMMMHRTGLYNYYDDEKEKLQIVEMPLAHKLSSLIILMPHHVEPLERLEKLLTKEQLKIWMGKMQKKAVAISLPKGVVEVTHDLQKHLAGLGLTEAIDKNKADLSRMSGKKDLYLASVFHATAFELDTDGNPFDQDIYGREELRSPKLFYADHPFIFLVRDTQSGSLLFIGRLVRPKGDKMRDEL
Procedure: (§2) Reprecipitations are preformed from Brij 96 lysates prepared from surface-biotinylated SCC cells. After five washes with the immunoprecipitation buffer, the protein complexes are dissociated with 0.5% SDS added to the immunoprecipitation buffer. The eluates are subsequently diluted 1:1 with immunoprecipitation buffer and re-precipitated with the appropriate antibodies directly coupled to Sepharose beads. The samples are then processed as described above.
as §1
(§3) Membrane surface proteins are consistently co-precipitated with anti-colligin/Hsp47 antibodies. In cross-linking studies, SCC and LL/2 cells are first pre-treated with a cleavable cross-linker, DSP, then surface labeled with biotin or [^125]-I, and subsequent immunoprecipitation is carried out under stringent conditions to disrupt the noncovalent association between Hsp and tetraspanin protein. […] A characteristic 47K band is readily detected in all anti-CD9 immunoprecipitates and protein band of 22K, similar in size to CD9/or CD81, is co-precipitated with anti-colligin/Hsp47. […]

[2] = target: T2, colligin/Hsp47 on the surface of murine Lewis Lung Carcinoma (LL/2) cells (murine, UniProt P19324 18-417); experiment: cross-linking (DSP) and immunoprecipitation with anti-CD81 mAbs, LL/2 cells
T2 construct: whole, on cells; Endogenous protein of LL/2 cells
T2 sequence (looked up): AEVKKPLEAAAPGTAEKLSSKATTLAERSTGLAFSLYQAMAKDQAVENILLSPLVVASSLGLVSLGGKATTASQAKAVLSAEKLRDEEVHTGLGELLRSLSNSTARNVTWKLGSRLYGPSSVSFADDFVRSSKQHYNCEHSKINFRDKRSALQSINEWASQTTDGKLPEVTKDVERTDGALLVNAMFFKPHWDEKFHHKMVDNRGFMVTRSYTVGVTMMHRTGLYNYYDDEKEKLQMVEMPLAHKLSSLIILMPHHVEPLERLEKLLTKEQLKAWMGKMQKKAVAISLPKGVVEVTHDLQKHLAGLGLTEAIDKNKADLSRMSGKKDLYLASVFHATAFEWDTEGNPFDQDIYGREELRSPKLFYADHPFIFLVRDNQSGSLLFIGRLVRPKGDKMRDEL
Procedure: as §2, §1, §3

With N=C(N)NC(=O)c1nc(Cl)c(N)nc1N [amiloride] the “amount of colligin/Hsp47 recovered following immunoprecipitation” value (colligin/Hsp47) was “greatly enhances” and the invasion index (SCC cells and LL/2 cells) was “dramatically decreases the invasion index”.

B1: CD81 on human SCC cells (other, UniProt P60033 1-236, looked up)
chain: MGVEGCTKCIKYLLFVFNFVFWLAGGVILGVALWLRHDPQTTNLLYLELGDKPAPNTFYVGIYILIAVGAVMMFVGFLGCYGAIQESQCLLGTFFTCLVILFACEVAAGIWGFVNKDQIAKDVKQFYDQALQQAVVDDDANNAKAVVKTFHETLDCCGSSTLTALTTSVLKNNLCPSGSNIISNLFKEDCHQKIDDLFSGKLYLIGIAAIVVAVIMIFEMILSMVLCCGIRNSSVY
notes: whole, on cells
B1: no binding [1].

B2: CD81 on murine LL/2 cells (other, UniProt P35762 1-236, looked up)
chain: MGVEGCTKCIKYLLFVFNFVFWLAGGVILGVALWLRHDPQTTSLLYLELGNKPAPNTFYVGIYILIAVGAVMMFVGFLGCYGAIQESQCLLGTFFTCLVILFACEVAAGIWGFVNKDQIAKDVKQFYDQALQQAVMDDDANNAKAVVKTFHETLNCCGSNALTTLTTTILRNSLCPSGGNILTPLLQQDCHQKIDELFSGKLYLIGIAAIVVAVIMIFEMILSMVLCCGIRNSSVY
notes: whole, on cells
B2: no binding [2].
